This is an account of results in the supplement of paper PMC10307832.

Test in all cases: relative viability (nuclei count vs DMSO), 5 days (fraction); higher = more cells survive
Compound in assay [1]: CC1=CC(=NN1)NC2=CC(=NC(=N2)/C=C/C3=CC=CC=C3)N4CCN(CC4)C
An outline of the steps:
(§1)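 Cells of lung cancer lines were placed in 1536-well plates and kept overnight at 37 °C. Pinning then delivered five library-drug doses (not always all listed), spaced by √10, onto plates anchored with vehicle, and the cells were left 5 days without changing medium. One step fixed, permeabilised and stained them with Hoechst, and MetaXpress counted nuclei in 4× images. Viability, as a median over plates, is treated-well nuclei divided by vehicle-well nuclei, with acceptance only at control CV below 25% and at least one doubling.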

Compound in assay [2]: CC(C)C[C@H](NC(=O)[C@H](Cc1ccccc1)NC(=O)c1cnccn1)B(O)O [Bortezomib]
An outline of the steps:
as §1

Compound in assay [3]: COC1=CC(c2cc3ccccc3[nH]2)=N/C1=C\c1[nH]c(C)cc1C [Obatoclax]
The method, boiled down:
as §1

As for NCI-H650, the relative viability was found to be 0.701 in assay [1] (0.08 µM); 1.15 in assay [1] (0.253 µM); 1.1 in assay [1] (0.8 µM); 0.492 in assay [1] (2.53 µM); 0.208 in assay [1] (8 µM); 0.97 in assay [2] (0.000632 µM). The relative viability in assay [2] (0.002 µM) came to 1.03; in assay [2] (0.002 µM, anchor plate), 0.902; in assay [2] (0.006325 µM) it was 0.689; in assay [2] (0.02 µM), 0.281; in assay [3] (0.01 µM), 1.02; in assay [3] (0.03162 µM) it was 0.765. The values for the relative viability in assay [3] (0.3162 µM) and in assay [3] (1 µM) were 0.742 and 0.445, respectively.
